# Laboratory results as given in ChEMBL document CHEMBL2086330, “Ras inhibition via direct Ras binding--is there a path forward?” (Bioorg Med Chem Lett, 2012).
# Tests used:
# [1] = biological target: GTPase KRas (Homo sapiens, UniProt P01116, G12D); experiment: Binding affinity to K-Ras G12D mutant-GDP complex
# [2] = Inhibition of Ras assessed as inhibition of intrinsic nucleotide exchange in cell-based assay
# [3] = Binding affinity to Ras SOS1 binding site
# [4] = biological target: T1, Son of sevenless homolog 1 (Homo sapiens, UniProt Q07889); experiment: Inhibition to His6-tagged Sos1 catalytic domain-mediated nucleotide exchange by fluorimetric assay
# T1 sequence (Q07889 whole entry): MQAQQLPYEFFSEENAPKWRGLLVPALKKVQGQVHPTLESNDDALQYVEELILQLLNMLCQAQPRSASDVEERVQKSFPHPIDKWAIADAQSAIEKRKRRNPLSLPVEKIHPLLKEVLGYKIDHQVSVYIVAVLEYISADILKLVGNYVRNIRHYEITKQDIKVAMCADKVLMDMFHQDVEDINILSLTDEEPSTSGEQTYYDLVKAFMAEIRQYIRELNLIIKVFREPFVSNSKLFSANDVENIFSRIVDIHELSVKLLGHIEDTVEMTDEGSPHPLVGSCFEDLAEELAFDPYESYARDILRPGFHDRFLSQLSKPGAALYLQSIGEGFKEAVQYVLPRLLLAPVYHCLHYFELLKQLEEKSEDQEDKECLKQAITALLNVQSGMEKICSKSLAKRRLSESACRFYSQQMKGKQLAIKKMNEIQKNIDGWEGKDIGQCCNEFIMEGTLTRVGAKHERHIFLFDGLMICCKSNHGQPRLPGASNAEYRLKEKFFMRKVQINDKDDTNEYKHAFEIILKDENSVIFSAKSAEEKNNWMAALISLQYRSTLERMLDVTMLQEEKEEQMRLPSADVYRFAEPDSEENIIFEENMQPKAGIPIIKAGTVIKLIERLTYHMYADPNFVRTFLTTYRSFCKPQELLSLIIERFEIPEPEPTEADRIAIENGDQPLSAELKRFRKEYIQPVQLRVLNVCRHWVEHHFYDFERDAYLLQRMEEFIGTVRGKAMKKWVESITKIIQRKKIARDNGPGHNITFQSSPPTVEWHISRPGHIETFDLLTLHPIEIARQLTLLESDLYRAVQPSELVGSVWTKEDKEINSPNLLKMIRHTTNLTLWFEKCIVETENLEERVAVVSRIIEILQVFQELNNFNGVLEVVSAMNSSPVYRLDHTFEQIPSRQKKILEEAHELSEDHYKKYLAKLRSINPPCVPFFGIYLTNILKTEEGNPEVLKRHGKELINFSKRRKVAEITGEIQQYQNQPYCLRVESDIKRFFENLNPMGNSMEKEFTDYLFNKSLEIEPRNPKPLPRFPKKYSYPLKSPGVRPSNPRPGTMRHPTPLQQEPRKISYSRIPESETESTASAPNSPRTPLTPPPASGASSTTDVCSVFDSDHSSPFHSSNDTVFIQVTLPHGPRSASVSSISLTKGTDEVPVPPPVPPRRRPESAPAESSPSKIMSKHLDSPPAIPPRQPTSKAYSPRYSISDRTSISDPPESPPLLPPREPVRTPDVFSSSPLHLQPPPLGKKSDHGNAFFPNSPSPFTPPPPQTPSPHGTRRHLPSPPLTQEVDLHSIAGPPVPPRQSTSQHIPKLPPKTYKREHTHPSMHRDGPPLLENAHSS
# [5] = biological target: GTPase NRas (Homo sapiens, UniProt P01111); experiment: Inhibition of N-Ras expressed in Escherichia coli using [3H]GDP and [3H]GTP assessed as inhibition of intrinsic nucleotide exchange by scintillation counting
# GTPase NRas, sequence (P01111 whole entry): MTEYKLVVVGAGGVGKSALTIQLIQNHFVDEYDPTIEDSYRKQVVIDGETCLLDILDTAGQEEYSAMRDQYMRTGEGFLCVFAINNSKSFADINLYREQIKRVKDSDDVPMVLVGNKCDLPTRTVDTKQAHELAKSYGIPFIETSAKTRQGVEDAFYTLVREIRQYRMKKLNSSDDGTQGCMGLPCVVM
# GTPase KRas, sequence (P01116 whole entry G12D): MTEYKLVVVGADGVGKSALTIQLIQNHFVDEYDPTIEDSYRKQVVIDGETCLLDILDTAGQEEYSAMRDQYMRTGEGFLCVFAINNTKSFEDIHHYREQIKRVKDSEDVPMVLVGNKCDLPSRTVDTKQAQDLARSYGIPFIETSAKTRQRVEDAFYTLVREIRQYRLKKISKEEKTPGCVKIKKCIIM
compound,measurement,setting,value
CC[C@H](C)[C@H](N)C(=O)Nc1ccc2nc(Cc3c[nH]c4ccccc34)[nH]c2c1,Kd,[1],190 µM
O=S(=O)(NCCOc1ccc2ccccc2c1)c1ccc(NO)cc1,EC50,[2],10 µM
Nc1cccc(NS(=O)(=O)c2ccc(F)cc2)n1,Activity,[3],1.3 mM
CC[C@H](C)[C@H](NC(=O)CN1C/C=C\CCC(=O)N[C@@H](Cc2ccccc2)C(=O)N[C@@H](CCC(=O)O)C1=O)C(=O)N[C@@H](Cc1ccc(O)cc1)C(=O)N[C@@H](CCCNC(=N)N)C(=O)N[C@@H](CC(C)C)C(=O)N[C@@H](CCC(=O)O)C(=O)N[C@@H](CC(C)C)C(=O)N[C@@H](CC(C)C)C(=O)N[C@@H](CCCCN)C(=O)N[C@@H](C)C(=O)N[C@@H](CCC(=O)O)C(=O)N[C@@H](CCC(=O)O)C(=O)N[C@@H](C)C(=O)N[C@@H](CC(N)=O)C(N)=O,IC50,[4],25 µM
Oc1ccccc1C(=S)N1CCCC1,Activity,[3],1.3 mM
c1ccc2c(Cc3nc4ccncc4[nH]3)c[nH]c2c1,Activity,[3],1.3 mM
O=S(=O)(c1ccc(NO)cc1)N(CCOc1ccc2ccccc2c1)[C@@H]1O[C@H](CO)[C@@H](O)[C@H](O)[C@H]1O,IC50,[5],0.5 µM
